In article PMC12308805, “Ultrahigh-Throughput Virtual Screening Strategies against PPI Targets: A Case Study of STAT Inhibitors” (Journal of Chemical Information and Modeling, 2025):
Each block holds one molecule with its values, some of them ahead of it.

Assays:
STAT5b = system: STAT5b; design: method as in literature; details: training set for retrospective virtual screening with 6MBW; known actives for STAT5b found in the literature; ref literature; cited from earlier work
[1] = target: T1, STAT5b (136–703) SH2 domain (Homo sapiens, UniProt P51692); assay: Fluorescence polarization assay (FP-assay), STAT5b SH2 domain; format: binding; design: key to identified as active in FP-assay: A compound was identified as active, if it had a mean IC50 value under 100 μM; details: for IC50: FP-assay, mean IC50, at least three biological replicates
T1 sequence (P51692 136-703): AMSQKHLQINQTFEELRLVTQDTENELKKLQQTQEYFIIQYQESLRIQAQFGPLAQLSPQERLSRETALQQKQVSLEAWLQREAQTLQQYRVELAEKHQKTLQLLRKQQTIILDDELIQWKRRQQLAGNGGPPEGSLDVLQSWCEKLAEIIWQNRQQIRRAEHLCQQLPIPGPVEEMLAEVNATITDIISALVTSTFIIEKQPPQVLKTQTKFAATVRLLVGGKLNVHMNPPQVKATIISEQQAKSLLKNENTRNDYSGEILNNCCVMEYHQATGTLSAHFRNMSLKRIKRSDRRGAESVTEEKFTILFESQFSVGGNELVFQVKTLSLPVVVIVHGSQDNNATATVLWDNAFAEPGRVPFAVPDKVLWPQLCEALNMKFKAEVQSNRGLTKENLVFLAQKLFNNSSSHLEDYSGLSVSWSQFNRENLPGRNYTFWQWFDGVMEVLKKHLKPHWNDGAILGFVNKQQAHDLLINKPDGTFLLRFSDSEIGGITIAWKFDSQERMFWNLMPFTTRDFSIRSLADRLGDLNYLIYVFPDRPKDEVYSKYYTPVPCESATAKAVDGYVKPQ
Description: (§1) The respective protocols for the expression and purification of the STAT3 SH2 and STAT5b SH2 domains were published in our recent works. Fluorescence polarization assays (FP-assays) were performed on a Molecular Devices SpectraMax iD5Multimode Microplate Reader (San Jose, CA, USA) using Greiner black 384-well flat-bottom nonbinding microplates with 40 μL final well volumes. The fluorescent peptides (5-FAM-G(pTyr)-LPQTV-NH2 and 5-FAM-G(pTyr)-LVLDKW-NH2, purchased from GenScript Biotech Ltd., Piscataway, NJ, USA), as well as the proteins, were diluted with a buffer containing 50 mM NaCl, 10 mM HEPES (4-(2-hydroxyethyl)-1-piperazineethanesulfonic acid), 1 mM EDTA (ethylenediaminetetraacetic acid), 2 mM DTT (dithiothreitol), and 0.1% Triton X-100, pH 7.5. For STAT3 (127–770), the final concentration of the protein was 200 nM, and the fluorescent peptide (5-FAM-G(pTyr)-LPQTV-NH2) was added at a final concentration of 5 nM; for STAT5b (136–703), the final concentration of the protein was 500 nM, and the fluorescent peptide (5-FAM-G(pTyr)-LVLDKW-NH2) was added at a final concentration of 10 nM. The wells were treated with varying concentrations of inhibitors (1250 to 0.11 μM final concentrations). The final DMSO content was 2.5%. After mixing, the protein and inhibitors were incubated at room temperature for 30 min, then the fluorescent peptide was added, and the plate was incubated for another 20 min prior to the fluorescence readout (extinction wavelength: 475 nm, emission wavelength: 520 nm). The measurements were carried out in at least three biological replicates. Fluorescence polarization was calculated from the perpendicular and parallel fluorescence intensities and then plotted against concentration. The IC50 values were determined after fitting quadratic dose–response curves on the data points in GraphPad Prism 8.0.1. […] All plotted curves and data points for the hit compounds are included in Section 2 of the Supporting Information.

[2] = target: T2, STAT5b N-terminal domain (NTD) (Homo sapiens, UniProt P51692); assay: Isothermal titration calorimetry (ITC), STAT5b-NTD; format: binding; design: key to identified as active in ITC: A compound was identified as active, if it had a mean Kd value under 100 μM; details: for Kd: ITC, 25 °C, 1X PBS pH 7.4, 8% DMSO, single-site fit
T2 sequence (P51692 1-126 limits assumed): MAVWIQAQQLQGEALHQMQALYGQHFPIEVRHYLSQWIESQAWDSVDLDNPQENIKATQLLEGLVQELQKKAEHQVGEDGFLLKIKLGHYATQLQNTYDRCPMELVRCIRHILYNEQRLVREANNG
Description: The detailed protocol for the expression and purification of the STAT5b-NTD was described in our recent work. ITC measurements were carried out on a MicroCal PEAQ-ITC microcalorimeter (Malvern Instruments, Worcestershire, UK). All protein and ligand solutions were composed of 1X PBS (pH 7.4) buffer containing 8% (V/V) DMSO to avoid buffer mismatch. Protein solutions containing 25-26 μM protein were prepared in batches prior to measurements by diluting 676 μM stock solution (stored in 1X PBS (pH 7.4) buffer at -80 °C) warmed to room temperature with 1X PBS (pH 7.4) buffer solution and an appropriate amount of DMSO. Ligand solutions were prepared by first dissolving the ligands in DMSO to acquire a 50 mM stock solution, which was then diluted to 1 mM (in the case of […]_M2 ligand) or 4 mM (all other ligands) concentration using 1X PBS (pH 7.4) buffer solution. Appropriate amounts of DMSO were also added to the solution containing 1 mM ligand to yield a 8% (V/V) DMSO content. The protein solution was loaded into the sample cell in a volume of 200 μL and was titrated at 25 °C with the ligand solution at a stirring speed of 1000 rpm and a reference heat rate of 10 μcal/s in a high feedback mode. Used initial delay was 120 s, and the injection program was composed of an initial first injection with 0.5 μL over 2 s, followed by 18 injections with 2 μL over 4 s. Injections were performed every 180 s. Blank measurements consisting of titrating the ligand into the buffer (1X PBS (pH 7.4) containing 8% (V/V) DMSO) were carried out to correct for the heat of dilution for all ligands using the appropriate injection program. Data were analyzed using the MicroCal PEAQ-ITC analysis software (version 1.22) by fitting a single-site binding curve. […] Binding curves of the identified active compounds are included in Supporting Information Figures S3-S5.

[3] = target: T3, STAT3 (127–770) SH2 domain (Homo sapiens, UniProt P40763); assay: Fluorescence polarization assay (FP-assay), STAT3 SH2 domain; format: binding; design: key to identified as active in FP-assay: A compound was identified as active, if it had a mean IC50 value under 100 μM; details: for IC50: FP-assay, mean IC50, at least three biological replicates
T3 construct: For STAT3 (127–770), the final concentration of the protein was 200 nM; made in house
T3 sequence (P40763 127-770): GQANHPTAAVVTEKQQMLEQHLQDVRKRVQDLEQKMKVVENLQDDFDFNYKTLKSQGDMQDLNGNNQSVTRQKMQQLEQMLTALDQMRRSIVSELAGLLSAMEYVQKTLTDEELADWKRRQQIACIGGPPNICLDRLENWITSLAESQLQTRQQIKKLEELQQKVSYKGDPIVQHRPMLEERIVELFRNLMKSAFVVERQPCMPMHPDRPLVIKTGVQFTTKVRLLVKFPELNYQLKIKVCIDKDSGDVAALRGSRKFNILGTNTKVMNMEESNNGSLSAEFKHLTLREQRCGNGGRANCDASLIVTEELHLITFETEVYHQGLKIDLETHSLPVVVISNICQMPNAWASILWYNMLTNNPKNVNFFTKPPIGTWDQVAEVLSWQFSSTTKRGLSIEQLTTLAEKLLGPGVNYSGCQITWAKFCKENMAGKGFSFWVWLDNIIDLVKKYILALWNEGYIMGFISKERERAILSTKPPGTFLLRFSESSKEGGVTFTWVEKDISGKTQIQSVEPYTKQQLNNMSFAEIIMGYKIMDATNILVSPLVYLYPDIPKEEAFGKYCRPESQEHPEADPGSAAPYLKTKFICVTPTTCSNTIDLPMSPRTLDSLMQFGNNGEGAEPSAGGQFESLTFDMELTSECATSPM
Description: as §1

Structure (SMILES): CC(C)(C)c1cc(CN(C(=O)CN(Cc2ccc(Cl)cc2)S(=O)(=O)c2c(F)c(F)c(F)c(F)c2F)c2ccc(C(=O)O)c(O)c2)cc(C(C)(C)C)c1 [13a, CC(C)(C)c1cc(CN(C(=O)CN(Cc2ccc(Cl)cc2)S(=O)(=O)c2c(F)c(F)c(F)c(F)c2F)c2ccc(C(=O)O)c(O)c2)cc(C(C)(C)C)c1]
Type (Active / decoy) (STAT5b): Active

identified as active in FP-assay [1]: active
IC50 [1]: 38.7 ± 13.7 µM
Structure (SMILES): O=C(O)C[C@@H](O)c1nc2ccccc2[nH]1 [S5_M1, [OH]C(=O)C[C@@H](O)c([nH]1)nc(c12)cccc2]

Structure (SMILES): CC(C)(C)c1cc(CN(C(=O)CN(Cc2ccc(Cl)cc2)S(=O)(=O)c2c(F)c(F)c(F)c(F)c2F)c2ccc(C(=O)O)cc2)cc(C(C)(C)C)c1 [AC-4-130, CC(C)(C)c1cc(CN(C(=O)CN(Cc2ccc(Cl)cc2)S(=O)(=O)c2c(F)c(F)c(F)c(F)c2F)c2ccc(C(=O)O)cc2)cc(C(C)(C)C)c1]
Type (Active / decoy) (STAT5b): Active

identified as active in FP-assay [1]: active
IC50 [1]: 16.2 ± 8.2 µM
Structure (SMILES): O=C(O)[C@@H](O)[C@@H](O)c1nc2ccccc2[nH]1 [S5_M7, [OH]C(=O)[C@@H](O)[C@@H](O)c([nH]1)nc(c12)cccc2]

Kd [2]: 268 ± 37.8 µM
Structure (SMILES): N[C@H]1C[C@@H](c2cc(N[C@H](CO)Cc3ccccc3)ncn2)C1 [S5N_M7, C1[C@H]([NH2])C[C@@H]1c(c2)ncnc2N[C@H](CO)Cc3ccccc3]
identified as weakly binding in ITC [2]: weakly binding (weakly binding (mean Kd is higher than 100 μM))

identified as active in ITC [2]: active
Kd [2]: 81.3 ± 12.7 µM
Structure (SMILES): O=C(NC[C@@]1(O)CCCNC1)Nc1cc(Cl)ccc1Cl [S5N_M4, Clc(c1)ccc(Cl)c1NC(=O)NC[C@@]2(O)CCC[NH]C2]

identified as active in ITC [2]: active
Kd [2]: 57.3 ± 11.9 µM
Structure (SMILES): CC(=O)N1CC[C@@H](NC(=O)c2cc3ccccc3cc2O)[C@H](O)C1 [S5N_M6, c1cccc(c12)cc(c(O)c2)C(=O)N[C@@H]3CCN(C(=O)C)C[C@H]3O]

Structure (SMILES): Nc1ccc(C(=O)O)c(C(=O)O)c1 [S3_M15, Nc1cc(C([OH])=O)c(C([OH])=O)cc1]
identified as weakly binding in FP-assay [3]: weakly binding (A weakly binding compound (mean IC50 value higher than 100 μM))

identified as active in FP-assay [1]: active
Structure (SMILES): O=C(NCCc1cnccn1)[C@H]1CCCN(C2CCN(Cc3ccncc3)CC2)C1 [S5_M13, c1cnccc1CN(CC2)CCC2[N@@]3CCC[C@@H](C3)C(=O)NCCc4cnccn4]

identified as active in FP-assay [3]: active
IC50 [3]: 99.9 ± 55.6 µM
Structure (SMILES): Cc1c(O)ccc2c(CC(=O)NCC(=O)NCC(=O)O)cc(=O)oc12 [S3_O10, Cc1c(O)ccc2c(CC(=O)NCC(=O)NCC(=O)[OH])cc(=O)oc12]

IC50 [1]: 378 ± 108 µM
Structure (SMILES): Cc1c(CC(=O)N[C@H](CCCCNC(N)=O)C(=O)O)c(=O)oc2cc(O)ccc12 [S5_M6, c1cc(O)cc(c12)oc(=O)c(c2C)CC(=O)N[C@@H](C([OH])=O)CCCCNC(=O)N]
identified as weakly binding in FP-assay [1]: weakly binding (A weakly binding compound (mean IC50 value higher than 100 μM))

IC50 [3]: 454 ± 181 µM
Structure (SMILES): NCCN(Cc1csc(COc2ccccc2)n1)C[C@@H](O)CO [S3_E8, OC[C@H](O)CN(CC[NH2])Cc1csc(n1)COc2ccccc2]
identified as weakly binding in FP-assay [3]: weakly binding (A weakly binding compound (mean IC50 value higher than 100 μM))

identified as active in FP-assay [1]: active
IC50 [1]: 42.6 ± 20.2 µM
Structure (SMILES): O=C(CCc1nc2ccccc2[nH]1)NCc1cc(-c2ccccc2)[nH]n1 [S5_M9, c1cccc(c12)[nH]c(n2)CCC(=O)NCc3n[nH]c(c3)-c4ccccc4]

identified as active in ITC [2]: active
Kd [2]: 34.9 ± 4.29 µM
Structure (SMILES): C[C@@](O)(CNC(=O)NCc1cccc2ccccc12)c1ccc2c(c1)OCO2 [S5N_M2, c1cccc(c12)c(ccc2)CNC(=O)NC[C@@](C)(O)c(cc3)cc(c34)OCO4]

Kd [2]: 484 ± 22.5 µM
Structure (SMILES): O=C(NCC[C@@H](O)c1ccc2c(c1)OCO2)C(=O)Nc1ccc(F)c(Cl)c1 [S5N_M1, Clc(c1)c(F)ccc1NC(=O)C(=O)NCC[C@@H](O)c(cc2)cc(c23)OCO3]
identified as weakly binding in ITC [2]: weakly binding (weakly binding (mean Kd is higher than 100 μM))

identified as active in FP-assay [1]: active
IC50 [1]: 41.2 ± 10.5 µM
Structure (SMILES): Nc1nc(NCCc2cn3ccsc3n2)cc([C@H]2C[C@H](O)C2)n1 [S5_M8, s1ccn(c12)cc(n2)CCNc3cc(nc(n3)N)[C@@H]4C[C@H](C4)O]

Structure (SMILES): CN(CC(=O)N(Cc1ccc(C2CCCCC2)cc1)c1ccc(C(=O)O)c(O)c1)S(=O)(=O)c1ccc(-c2ccccc2)cc1 [BP-1-107, CN(CC(=O)N(Cc1ccc(C2CCCCC2)cc1)c1ccc(C(=O)O)c(O)c1)S(=O)(=O)c1ccc(-c2ccccc2)cc1]
Type (Active / decoy) (STAT5b): Active

IC50 [1]: 13.8 ± 14.9 µM
Structure (SMILES): Cn1c(CN2CCC(O)CC2)nnc1[C@H]1CCCN(Cc2ncc[nH]2)C1 [S5_M14, C1CC(O)CCN1Cc(n2C)nnc2[C@H]3CCCN(C3)Cc4[nH]cc[n]4]

identified as active in FP-assay [3]: active
IC50 [3]: 26.7 ± 22.2 µM
Structure (SMILES): COc1ccccc1COC[C@@H](O)CN[C@H](C)c1cccc(S(N)(=O)=O)c1 [S3_E5, COc1ccccc1COC[C@@H](O)C[NH][C@H](C)c2cccc(c2)S(=O)(=O)N]

identified as active in FP-assay [3]: active
IC50 [3]: 21.7 ± 10.4 µM
Structure (SMILES): O=[N+]([O-])c1ccccc1S(=O)(=O)NC[C@H](O)COc1ccc2c(c1)OCO2 [S3_E6, O=[N+]([O-])c1ccccc1S(=O)(=O)NC[C@H](O)COc(cc2)cc(c23)OCO3]

identified as active in FP-assay [3]: active
IC50 [3]: 80 ± 34.3 µM
Structure (SMILES): C[C@@H](NC(=O)[C@@H]1CCCC[C@@H]1C(=O)O)c1ccncc1 [S3_M2, c1cnccc1[C@@H](C)NC(=O)[C@@H]2CCCC[C@@H]2C([OH])=O]

identified as active in FP-assay [1]: active
IC50 [1]: 62.4 ± 28.2 µM
Structure (SMILES): COc1cnc(CSc2nc(C)cc(C)n2)cc1OCC(N)=O [S5_M2, Cc(n1)cc(C)nc1SCc2cc(c(cn2)OC)OCC(=O)N]

identified as active in FP-assay [3]: active
IC50 [3]: 62.7 ± 25.1 µM
Structure (SMILES): Cc1cccc(OC[C@@H](O)CN(C(=O)NC[C@H]2CC(C(N)=O)=NO2)C(C)C)c1 [S3_E7, Cc1cc(ccc1)OC[C@@H](O)CN(C(C)C)C(=O)NC[C@H]2CC(=NO2)C(=O)N]
